Reference: US9302991B2, “Arylamide derivatives as TTX-S blockers” (RaQualia Pharma Inc., priority 2010, dated 2016)
pIC50: −log10 of the molar value.

Molecular target: T1, human Nav1.7 channels (Homo sapiens, UniProt Q15858)
T1 construct: expressed in transfected cells; host or cells: CHO
Experiment: FRET assay, human Nav1.7 (EFS on FDSS)
Format: cell-based
Settings: CHO cells expressing human Nav1.7, read-out: IC50 against Nav1.7
Description: The inhibitory activities of compounds against voltage gated sodium channels are determined by methodology well known in the art.
The ability of the aryl substituted carboxamide derivatives of the formula (I) to inhibit the NaV1.3, Nav1.7 and Nav1.5 channels is measured by Fluorescence Resonance Energy Transfer (FRET) assay and electrophysiology assay described below.
This screen is used to determine the effects of compounds on human Nav1.3, human Nav1.7, and human Nav1.5 channels, utilising electrical field stimulation (EFS) system in 96-well plate format on FDSS (Hamamatsu Photonics) platform. The change of membrane potential is monitored with FRET dye pair, oxonol (DiSBAC2(3)) and coumarin (CC2-DMPE).
CHO cells expressing human Nav1.7 channels are grown in T225 flasks, in a 5% CO2 humidified incubator to about 80% confluence. Media composition consists of HAM/F12 with Glutamax 1.10% FCS, 100 units/mL Penicillin and 100 microgram/mL Hygromycin.
Protocol: • Seed each cell lines (1×10^5 cells/well) into poly-D-lysine coated 96-well plates prior to experimentation. • Incubate at 37° C. in 5% CO2 for 24 hours. • Wash each well with assay buffer (140 mM NaCl, 4.5 mM KCl, 10 mM D-Glucose, 2 mM CaCl2, 1 mM MgCl2, 10 mM HEPES, pH 7.4 adjusted with NaOH) twice. • Add 1st loading solution containing 10 microM CC2-DMPE and 0.06% Pluronic F-127 in assay buffer. • Incubate the plate at room temperature in dark for 1 hour. • Remove 1st loading solution and added 2nd loading solution containing 15 microM DiSBAC2(3), 0.555 mM VABSC-1 and 0.004% Pluronic F-127 in assay buffer. • Place the plate under the dark at room temperature for 25 minutes. • Add compound solutions into the assay plate. • Set the assay plate in FDSS and placed an EFS device on the plate. • Measure EFS-induced fluorescent response by FDSS.
The data are analyzed and reported as normalized ratios of intensities measured at […]. The process of calculating these ratios is performed as follows:
This analysis is performed using a computerized specific program designed for FDSS generated data. Fluorescence ratio values are plotted using XLfit to determine an IC50 value for each compound.

T1 sequence (Q15858 whole entry): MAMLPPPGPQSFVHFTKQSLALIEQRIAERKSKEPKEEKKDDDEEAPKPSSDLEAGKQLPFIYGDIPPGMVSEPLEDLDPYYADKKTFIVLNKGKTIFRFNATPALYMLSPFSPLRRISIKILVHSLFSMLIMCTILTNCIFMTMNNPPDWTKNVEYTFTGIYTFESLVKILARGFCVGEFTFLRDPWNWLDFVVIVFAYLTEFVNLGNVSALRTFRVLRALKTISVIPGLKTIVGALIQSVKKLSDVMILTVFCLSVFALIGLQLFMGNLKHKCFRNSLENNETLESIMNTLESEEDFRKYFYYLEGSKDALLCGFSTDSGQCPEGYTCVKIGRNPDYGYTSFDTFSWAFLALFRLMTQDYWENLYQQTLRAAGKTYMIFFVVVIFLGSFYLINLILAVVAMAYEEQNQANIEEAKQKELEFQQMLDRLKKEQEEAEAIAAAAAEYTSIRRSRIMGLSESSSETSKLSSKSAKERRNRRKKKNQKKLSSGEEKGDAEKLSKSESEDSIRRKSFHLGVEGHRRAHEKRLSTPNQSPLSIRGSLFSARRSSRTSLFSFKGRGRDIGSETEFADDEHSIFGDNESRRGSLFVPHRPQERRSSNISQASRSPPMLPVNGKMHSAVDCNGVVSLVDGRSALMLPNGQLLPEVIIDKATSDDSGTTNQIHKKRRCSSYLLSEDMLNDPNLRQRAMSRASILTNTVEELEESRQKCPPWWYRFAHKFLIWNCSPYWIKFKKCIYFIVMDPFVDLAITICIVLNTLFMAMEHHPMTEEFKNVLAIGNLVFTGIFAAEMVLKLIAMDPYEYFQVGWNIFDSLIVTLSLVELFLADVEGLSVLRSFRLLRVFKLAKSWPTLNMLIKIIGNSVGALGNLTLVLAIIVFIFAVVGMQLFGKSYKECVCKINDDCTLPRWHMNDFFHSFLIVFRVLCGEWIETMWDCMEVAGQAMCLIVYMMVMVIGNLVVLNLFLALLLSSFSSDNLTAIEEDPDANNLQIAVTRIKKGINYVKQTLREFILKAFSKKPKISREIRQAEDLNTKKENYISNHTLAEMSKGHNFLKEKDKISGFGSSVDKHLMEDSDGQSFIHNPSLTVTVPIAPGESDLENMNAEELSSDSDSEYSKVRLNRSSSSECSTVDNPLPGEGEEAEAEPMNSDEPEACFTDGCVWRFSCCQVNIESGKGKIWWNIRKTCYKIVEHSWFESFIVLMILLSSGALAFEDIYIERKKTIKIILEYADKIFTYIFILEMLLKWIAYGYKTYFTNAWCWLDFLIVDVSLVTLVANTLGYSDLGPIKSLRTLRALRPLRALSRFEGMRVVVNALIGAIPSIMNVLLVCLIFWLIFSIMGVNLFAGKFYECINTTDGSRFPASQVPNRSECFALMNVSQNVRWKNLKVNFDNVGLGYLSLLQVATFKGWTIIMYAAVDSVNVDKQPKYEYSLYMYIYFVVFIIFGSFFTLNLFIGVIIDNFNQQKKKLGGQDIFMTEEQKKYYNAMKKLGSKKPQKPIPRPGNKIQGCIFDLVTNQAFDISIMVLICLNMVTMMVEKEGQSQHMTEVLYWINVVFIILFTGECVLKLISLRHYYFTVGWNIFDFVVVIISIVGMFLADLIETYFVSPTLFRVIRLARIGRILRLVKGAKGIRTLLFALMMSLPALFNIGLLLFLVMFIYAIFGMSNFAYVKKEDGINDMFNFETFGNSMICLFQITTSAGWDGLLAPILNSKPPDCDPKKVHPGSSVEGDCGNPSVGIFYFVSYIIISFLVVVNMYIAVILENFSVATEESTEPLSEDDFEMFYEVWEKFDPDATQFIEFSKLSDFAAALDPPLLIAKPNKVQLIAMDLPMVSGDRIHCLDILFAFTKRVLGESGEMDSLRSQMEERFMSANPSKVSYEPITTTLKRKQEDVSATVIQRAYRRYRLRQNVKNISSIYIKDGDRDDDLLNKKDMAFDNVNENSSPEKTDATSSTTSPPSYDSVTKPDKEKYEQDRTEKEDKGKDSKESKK

| Compound | pIC50 |
| --- | --- |
| CC(C)C(=O)Nc1cc(C(=O)NCc2ccc(OCC(F)(F)F)nc2N2CCCCC2)ccn1 [Example 305, 2-isobutyramido-N-((2-(piperidin-1-yl)-6-(2,2,2-trifluoroethoxy)pyridin-3-yl)methyl)isonicotinamide] | > 6.00 |
| Cc1cc(C(=O)NC(C)c2ccc(OCC(F)(F)C(F)F)nc2)cc(NC(=O)C2CC2)n1 (single isomer, unassigned) [Example 828] | > 6.00 |
| COc1cc(CNC(=O)c2ccnc(NC(C)=O)c2)ccc1OCC(F)(F)F [Example 1078, 2-acetamido-N-(3-methoxy-4-(2,2,2-trifluoroethoxy)benzyl)isonicotinamide] | > 6.00 |
| COc1cc(OC(F)(F)F)ccc1CNC(=O)c1ccnc(NC(=O)C(C)C)c1 [Example 869, 2-isobutyramido-N-(2-methoxy-4-(trifluoromethoxy)benzyl)isonicotinamide] | > 6.00 |
| CCC(=O)Nc1cc(C(=O)NC(C)c2ccc(OCC(F)F)nc2OC)ccn1 (single isomer, unassigned) [Example 1161, N-(1-(6-(2,2-difluoroethoxy)-2-methoxypyridin-3-yl)ethyl)-2-propionamidoisonicotinamide] | > 6.00 |
| CCC(=O)Nc1cc(C(=O)NCc2ccc(OCC(F)(F)F)nc2N2CCOCC2)cc(C)n1 [Example 284, 2-methyl-N-((2-morpholino-6-(2,2,2-trifluoroethoxy)pyridin-3-yl)methyl)-6-propionamidoisonicotinamide] | > 6.00 |
| Cc1cc(OCC(F)(F)F)ncc1CNC(=O)c1ccnc(NC(=O)C2CC2)n1 [Example 403, 2-(cyclopropanecarboxamido)-N-((4-methyl-6-(2,2,2-trifluoroethoxy)pyridin-3-yl)methyl)pyrimidine-4-carboxamide] | > 6.00 |
| CCC(=O)Nc1cc(C(=O)NC(C)c2cnc(OCC(F)(F)F)c(OC)c2)cc(C)n1 (single isomer, unassigned) [Example 144, N-(1-(5-methoxy-6-(2,2,2-trifluoroethoxy)pyridin-3-yl)ethyl)-2-methyl-6-propionamidoisonicotinamide] | > 6.00 |
| CCC(=O)Nc1cc(C(=O)NC(C)c2cnc(OCC(F)(F)F)c(OC)c2)ccn1 (single isomer, unassigned) [Example 142] | > 6.00 |
| O=C(NCc1cccc(C(F)(F)F)c1)c1ccnc(NC(=O)C2CC2)n1 [Example 404, 2-(cyclopropanecarboxamido)-N-(3-(trifluoromethyl)benzyl)pyrimidine-4-carboxamide] | > 6.00 |
| Cc1cc(C(=O)NC(C)c2cccc(SC(F)(F)F)c2)cc(NC(=O)C(C)C)n1 (single isomer, unassigned) [Example 1032, 2-isobutyramido-6-methyl-N-(1-(3-((trifluoromethyl)thio)phenyl)ethyl)isonicotinamide] | > 6.00 |
| Cc1cc(C(=O)NC(C)c2cnc(OCC(F)F)c(C)c2)nc(NC(=O)C2CC2)n1 (single isomer, unassigned) [Example 559, 2-(cyclopropanecarboxamido)-N-(1-(6-(2,2-difluoroethoxy)-5-methylpyridin-3-yl)ethyl)6-methylpyrimidine-4-carboxamide] | > 6.00 |
| CC(C)C(=O)Nc1cc(C(=O)NC(C)c2cccc(OCC(F)(F)F)c2)ccn1 (single isomer, unassigned) [Example 561, 2-isobutyramido-N-(1-(3-(2,2,2-trifluoroethoxy)phenyl)ethyl)isonicotinamide] | > 6.00 |
| Cc1cc(C(=O)NCc2cnc(OCC(F)(F)F)c(Br)c2)cc(NC(=O)C(C)C)n1 [Example 901, N-((5-bromo-6-(2,2,2-trifluoroethoxy)pyridin-3-yl)methyl)-2-isobutyramido-6-methylisonicotinamide] | > 6.00 |
| CC(NC(=O)c1ccnc(NC(=O)C2CC2)n1)c1ccc(OCC(F)(F)F)cc1 (single isomer, unassigned) [Example 405, 2-(cyclopropanecarboxamido)-N-(1-(4-(2,2,2-trifluoroethoxy)phenyl)ethyl)pyrimidine-4-carboxamide] | > 6.00 |

Now from value to compound:

| pIC50 | Compound |
| --- | --- |
| > 6.00 | Cc1cc(C(C)NC(=O)c2ccnc(NC(=O)C(C)C)c2)cnc1OCC(F)(F)F (single isomer, unassigned) [Example 378, 2-isobutyramido-N-(1-(5-methyl-6-(2,2,2-trifluoroethoxy)pyridin-3-yl)ethyl)isonicotinamide] |
| > 6.00 | CCC(=O)Nc1cc(C(=O)NCc2cnc(OCC(F)(F)F)c(OC)c2)cc(C)n1 [Example 270] |
| > 6.00 | CC(=O)Nc1cc(C(=O)N(C)Cc2cnc(OCC(F)(F)F)c(C)c2)cc(C)n1 [Example 394, 2-acetamido-N,6-dimethyl-N-((5-methyl-6-(2,2,2-trifluoroethoxy)pyridin-3-yl)methyl)isonicotinamide] |
| > 6.00 | CCC(=O)Nc1cc(C(=O)NC(C)c2ccc(OCC(F)F)cc2Cl)ccn1 (single isomer, unassigned) [Example 1116, N-(1-(2-chloro-4-(2,2-difluoroethoxy)phenyl)ethyl)-2-propionamidoisonicotinamide] |
| > 6.00 | Cc1cc(C(=O)NC(C)c2ccc(OCC(F)(F)C(F)(F)F)nc2)cc(NC(=O)C2CC2)n1 (single isomer, unassigned) [Example 837, 2-(cyclopropanecarboxamido)-6-methyl-N-(1-(6-(2,2,3,3,3-pentafluoropropoxy)pyridin-3-yl)ethyl)isonicotinamide] |
| > 6.00 | O=C(NCc1cnc(OCC(F)F)c(Cl)c1)c1ccnc(NC(=O)C2CC2)c1 [Example 705, N-((5-chloro-6-(2,2-difluoroethoxy)pyridin-3-yl)methyl)-2-(cyclopropanecarboxamido)isonicotinamide] |
| > 6.00 | CC(C)C(=O)Nc1nccc(C(=O)NC(C)c2cnc(OCC(F)(F)F)c(Cl)c2)n1 (single isomer, unassigned) [Example 212, N-(1-(5-chloro-6-(2,2,2-trifluoroethoxy)pyridin-3-yl)ethyl)-2-isobutyramidopyrimidine-4-carboxamide] |
| > 6.00 | CCOc1nc(OCC(F)(F)F)ccc1CNC(=O)c1cc(C)nc(NC(C)=O)n1 [Example 338, 2-acetamido-N-((2-ethoxy-6-(2,2,2-trifluoroethoxy)pyridin-3-yl)methyl)-6-methylpyrimidine-4-carboxamide] |
| > 6.00 | Cc1cc(C(=O)NCc2ccc(OCC(F)(F)C(F)(F)F)nc2)cc(NC(=O)C2CC2)n1 [Example 827, 2-(cyclopropanecarboxamido)-6-methyl-N-((6-(2,2,3,3,3-pentafluoropropoxy)pyridin-3-yl)methyl)isonicotinamide] |
| > 6.00 | Cc1cc(CNC(=O)c2ccnc(NC(=O)C3CC3)n2)ccc1OCC(F)F [Example 992, 2-(cyclopropanecarboxamido)-N-(4-(2,2-difluoroethoxy)-3-methylbenzyl)pyrimidine-4-carboxamide] |
| > 6.00 | Cc1nc(OCC(F)(F)F)ccc1CNC(=O)c1ccnc(NC(=O)C2CC2)n1 [Example 407, 2-(cyclopropanecarboxamido)-N-((2-methyl-6-(2,2,2-trifluoroethoxy)pyridin-3-yl)methyl)pyrimidine-4-carboxamide] |
| > 6.00 | CCC(=O)Nc1cc(C(=O)NCc2ccc(OCC(F)(F)F)nc2N2CCCCC2)ccn1 [Example 303, N-((2-(piperidin-1-yl)-6-(2,2,2-trifluoroethoxy)pyridin-3-yl)methyl)-2-propionamidoisonicotinamide] |
